Assay [1] in a line: Cytotoxic activity against human SKOV3 cells assessed as inhibition of cell growth after 48 hrs by MTT assay. The assay is classed as functional, cell-based. The conditions noted are these: SK-OV-3, 48 h.
Assay [2] is described as follows: Cytotoxic activity against human Bel7404 cells assessed as inhibition of cell growth after 48 hrs by MTT assay. Format: functional, cell-based. The conditions noted are these: BEL-7404, 48 h.
Assay [3] relates to A549. In words: Cytotoxic activity against human A549 cells assessed as inhibition of cell growth after 48 hrs by MTT assay. The assay is classed as functional, cell-based. The conditions noted are these: A549, 48 h.
Assay [4] in a line: Cytotoxic activity against human HCT116 cells assessed as inhibition of cell growth after 48 hrs by MTT assay. The assay is classed as functional, cell-based. The conditions noted are these: HCT-116, 48 h.
The subject of assay [5] is NCI-H460. In words: Cytotoxic activity against human NCI-H460 cells assessed as inhibition of cell growth after 48 hrs by MTT assay. The assay is classed as functional, cell-based. As to conditions: NCI-H460, 48 h.
Assay [6] deals with Cyclin-dependent kinase 2/cyclin E1 (Homo sapiens, UniProt P24941). In words: Inhibition of human recombinant C-terminal His6-tagged full length human Cdk2/human recombinant N-terminal GST-tagged full-length Cyclin E using histone H1 substrate after 40 mins by radiometric filter binding assay. Format: protein-complex assay.
The test system of assay [7] is SK-OV-3. In words: Induction of apoptosis in human SKOV3 cells assessed as increase in chromatin condensation at 5 uM after 24 hrs by Hoechst 33258 staining based fluorescence microscopic analysis. Format: functional, cell-based.
In assay [8] the test system is SK-OV-3. In words: Induction of apoptosis in human SKOV3 assessed as loss of membrane integrity at 5 uM after 12 to 24 hrs by AO/EB staining based fluorescence microscopic analysis. The assay is classed as functional.
The test system of assay [9] is SK-OV-3. In words: Induction of ROS generation in human SKOV3 cells at 5 uM after 12 hrs by DCF-DA dye based flow cytometry (reference value: 12.9%). The assay is classed as functional.
Assay [10] has as its system SK-OV-3. In words: Induction of ROS generation in human SKOV3 cells at 5 uM after 24 hrs by DCF-DA dye based flow cytometry (reference value: 12.9%). The assay is classed as functional.
The subject of assay [11] is SK-OV-3. In words: Induction of apoptosis in human SKOV3 cells assessed as depolarization of mitochondria at 5 uM after 12 to 24 hrs by JC-1 dye based fluorescence microscopic analysis. Format: functional.
In assay [12] the test system is SK-OV-3. In words: Induction of apoptosis in human SKOV3 cells assessed as increase in cytochrome c level in cytosol at 5 uM after 12 to 24 hrs by Western blot analysis. The assay is classed as functional, cell-based.
Assay [13] deals with SK-OV-3. In words: Induction of apoptosis in human SKOV3 cells assessed as caspase-9 cleavage at 5 uM after 12 to 24 hrs by Western blot analysis. Format: functional, cell-based.
Assay [14] concerns SK-OV-3. In words: Induction of apoptosis in human SKOV3 cells assessed as caspase-3 cleavage at 5 uM after 12 to 24 hrs by Western blot analysis. The assay is classed as functional, cell-based.
Assay [15] concerns SK-OV-3. In words: Induction of apoptosis in human SKOV3 cells assessed as caspase-3 activity by Ac-DEVD-pNA based spectrophotometric analysis. The conditions noted are these: TDE = time-dependent effect. The assay is classed as functional, cell-based.
Assay [16] deals with SK-OV-3. In words: Induction of apoptosis in human SKOV3 cells assessed as caspase-9 activity by Ac-LEHD-pNA based spectrophotometric analysis. The assay is classed as functional, cell-based. As to conditions: TDE = time-dependent effect.
The test system of assay [17] is SK-OV-3. In words: Induction of apoptosis in human SKOV3 cells after 12 hrs by Annexin V-FITC/PI staining based flow cytometry. The assay is classed as functional, cell-based.
For assay [18], the system named is SK-OV-3. In words: Induction of apoptosis in human SKOV3 cells assessed as late apoptotic cells at 3 uM after 12 hrs by Annexin V-FITC/PI staining based flow cytometry (reference value: 1.5%). Format: functional.
The test system of assay [19] is SK-OV-3. In words: Induction of apoptosis in human SKOV3 cells assessed as late apoptotic cells at 5 uM after 12 hrs by Annexin V-FITC/PI staining based flow cytometry (reference value: 1.5%). The assay is classed as functional.
Assay [20] concerns SK-OV-3. In words: Induction of apoptosis in human SKOV3 cells assessed as early apoptotic cells at 3 uM after 12 hrs by Annexin V-FITC/PI staining based flow cytometry (reference value: 2.8%). Format: functional.
The subject of assay [21] is SK-OV-3. In words: Induction of apoptosis in human SKOV3 cells assessed as early apoptotic cells at 5 uM after 12 hrs by Annexin V-FITC/PI staining based flow cytometry (reference value: 2.8%). The assay is classed as functional.
In assay [22] the test system is SK-OV-3. In words: Induction of ROS generation in human SKOV3 cells at 5 uM after 12 hrs by DCF-DA dye based flow cytometry relative to control. The assay is classed as functional.
The nature of assay [23]: Upregulation of Bax protein expression in human SKOV3 cells at 5 uM after 12 to 24 hrs by Western blot analysis. As to conditions: SK-OV-3. Format: functional, cell-based.
A short description of assay [24]: Downregulation of Bcl-2 protein expression in human SKOV3 cells after 12 to 24 hrs by Western blot analysis. Format: functional, cell-based. As to conditions: SK-OV-3.
In assay [25] the test system is SK-OV-3. In words: Induction of Fas protein expression in human SKOV3 cells after 12 to 24 hrs by Western blot analysis. The assay is classed as functional, cell-based.
Assay [26] deals with SK-OV-3. In words: Induction of apoptosis in human SKOV3 cells assessed as reduction in caspase-8 level in cytoplasm at 5 uM after 12 to 24 hrs by Western blot analysis. The assay is classed as functional, cell-based.
Assay [27] can be described thus: Cell cycle arrest in human SKOV3 cells assessed as accumulation at G1 phase at 3 uM after 24 hrs by propidium iodide staining based flow cytometry (reference value: 53.38%). Format: functional. As to conditions: SK-OV-3.
Assay [28] is described as follows: Cell cycle arrest in human SKOV3 cells assessed as accumulation at G2 phase at 3 uM after 24 hrs by propidium iodide staining based flow cytometry (reference value: 8.85%). Format: functional. The conditions noted are these: SK-OV-3.
A short description of assay [29]: Cell cycle arrest in human SKOV3 cells assessed as accumulation at S phase at 3 uM after 24 hrs by propidium iodide staining based flow cytometry (reference value: 37.77%). Format: functional. As to conditions: SK-OV-3.
The nature of assay [30]: Cell cycle arrest in human SKOV3 cells assessed as accumulation at G1 phase at 5 uM after 24 hrs by propidium iodide staining based flow cytometry (reference value: 53.38%). Format: functional. The conditions noted are these: SK-OV-3.
Assay [31] can be described thus: Cell cycle arrest in human SKOV3 cells assessed as accumulation at G2 phase at 5 uM after 24 hrs by propidium iodide staining based flow cytometry (reference value: 8.85%). The conditions noted are these: SK-OV-3. The assay is classed as functional.
Assay [32] in a line: Cell cycle arrest in human SKOV3 cells assessed as accumulation at S phase at 5 uM after 24 hrs by propidium iodide staining based flow cytometry (reference value: 37.77%). The assay is classed as functional. The conditions noted are these: SK-OV-3.

The source made the active and inactive calls. The calls are words filed in the database; no cut-off is given here.

Regarding `CCOP(=O)(OCC)C(CNc1cccc(NC(=S)NC(=O)[C@]2(C)CCC[C@]3(C)c4ccc(C(C)C)cc4CC[C@@H]23)c1C)P(=O)(OCC)OCC`, the IC50 was 17.3 µM in [1]; 11.9 µM in assay [2]; 15.7 µM in assay [3]; 11.9 µM in assay [4]; 14.2 µM in [5]; 5.98 µM in [6].
`CCOP(=O)(OCC)C(CNc1ccc(Sc2ccc(NC(=S)NC(=O)[C@]3(C)CCC[C@]4(C)c5ccc(C(C)C)cc5CC[C@@H]34)cc2)cc1)P(=O)(OCC)OCC`: the IC50 is 40.9 µM in [1]; 39.2 µM in assay [2]; 38.8 µM in [3]; 34.1 µM in [4]; 40.9 µM in [5]; 1.01 µM in assay [6].
For the molecule `CCOP(=O)(OCC)C(CNc1ccc(Oc2ccc(NC(=S)NC(=O)[C@]3(C)CCC[C@]4(C)c5ccc(C(C)C)cc5CC[C@@H]34)cc2)cc1)P(=O)(OCC)OCC`, the IC50 in assay [1] worked out at 58.9 µM; in assay [2] it was 31.3 µM; in assay [3], 20 µM; in assay [4], 44.6 µM; in assay [5], 38.2 µM; in [6], 40.9 µM.
Consider `CCOP(=O)(OCC)C(CNc1ccc(S(=O)(=O)c2ccc(NC(=S)NC(=O)[C@]3(C)CCC[C@]4(C)c5ccc(C(C)C)cc5CC[C@@H]34)cc2)cc1)P(=O)(OCC)OCC`, for which the 50% inhibitory concentration (IC50) in assay [1] worked out at 53.9 µM; in [2], 32.2 µM; in assay [3], 41.9 µM; in assay [4], 56 µM; in assay [5] it was 32.7 µM; in assay [6], 0.65 µM.
With `CCOP(=O)(OCC)C(CNc1ccc(Cc2ccc(NC(=S)NC(=O)[C@]3(C)CCC[C@]4(C)c5ccc(C(C)C)cc5CC[C@@H]34)cc2)cc1)P(=O)(OCC)OCC`, the IC50 in assay [1] was 28.9 µM; in [2] it was 35.9 µM; in assay [3] it was 33.6 µM; in assay [4] it was 25.5 µM; in assay [5], 37.6 µM; in [6] it was 29.5 µM.
Regarding `CCOP(=O)(OCC)C(CNc1ccc(F)cc1NC(=S)NC(=O)[C@]1(C)CCC[C@]2(C)c3ccc(C(C)C)cc3CC[C@@H]12)P(=O)(OCC)OCC`, the Activity entry is “Dose-dependent effect” in assay [7]; 33.6% in assay [9]; 49.3% in assay [10]; “tde” in assay [15]; “tde” in [16]; “Dose-dependent effect” in assay [17]. Further, the Activity was 14.4% in assay [18]; 5.7% in [19]; 14.5% in assay [20]; 24.7% in [21]; “Dose-dependent effect” in assay [23]; “Dose-dependent effect” in assay [24]. Further, the Activity result in [25] was “Dose-dependent effect”; in [27], 59.8%; in assay [28], 13.4%; in assay [29], 26.9%; in [30], 68.1%; in [31], 10.5%. Further, the Activity in assay [32] stood at 21.4%. Also, the outcome in assay [8], in [11], in assay [12], in assay [13], in [14] and in assay [26] was Active. Moreover, the concentration for half-maximal inhibition (IC50) in [1] was 1.79 µM; in [2], 7.1 µM; in [3] it was 6.93 µM; in assay [4], 6.01 µM; in assay [5], 8.17 µM; in assay [6] it was 0.13 µM. Also, the “fold change (FC)” value in assay [22] came to 2.
In the case of `O=c1[nH]cc(F)c(=O)[nH]1` [FLUOROURACIL], the IC50 in [1] was determined as 22.4 µM; in assay [2] it was 30.2 µM; in assay [4], 24.6 µM; in [5], 35.5 µM.
Turning to `CCOP(=O)(OCC)C(CNc1cc(Cl)c(NC(=S)NC(=O)[C@]2(C)CCC[C@]3(C)c4ccc(C(C)C)cc4CC[C@@H]23)cc1Cl)P(=O)(OCC)OCC`, the IC50 in assay [1] was 22.1 µM; in assay [2], 24.6 µM; in assay [3], 16.4 µM; in [4], 20.2 µM; in [5], 24 µM; in [6], more than 50 µM.
With `CCOP(=O)(OCC)C(CNc1cccc(NC(=S)NC(=O)[C@]2(C)CCC[C@]3(C)c4ccc(C(C)C)cc4CC[C@@H]23)c1)P(=O)(OCC)OCC`, the 50% inhibitory concentration (IC50) in assay [1] is 16.5 µM; in assay [2], 10.3 µM; in assay [3] it was 15.4 µM; in assay [4], 11.3 µM; in assay [5], 13.7 µM; in assay [6], more than 50 µM.
Consider `CCOP(=O)(OCC)C(CNc1ccc(NC(=S)NC(=O)[C@]2(C)CCC[C@]3(C)c4ccc(C(C)C)cc4CC[C@@H]23)cc1)P(=O)(OCC)OCC`, for which the IC50 in assay [1] amounted to 16.6 µM; in assay [2] it was 12.1 µM; in [3] it was 15.9 µM; in assay [4], 12.2 µM; in assay [5], 13 µM; in assay [6] it was 17.8 µM.
Turning to `CC(C)c1ccc2c(c1)CC[C@H]1[C@](C)(C(=O)O)CCC[C@]21C` [DEHYDROABIETIC ACID], the IC50 in assay [1] stood at 65.1 µM; in assay [2], 28.7 µM; in assay [3], 55.6 µM; in assay [4], 30.2 µM; in assay [5] it was 75 µM; in assay [6], 36.3 µM.
`CCOP(=O)(OCC)C(CNc1cc(C)c(C)cc1NC(=S)NC(=O)[C@]1(C)CCC[C@]2(C)c3ccc(C(C)C)cc3CC[C@@H]12)P(=O)(OCC)OCC`: the IC50 worked out at 19.5 µM in assay [1]; 12.7 µM in assay [2]; 13.8 µM in assay [3]; 13.1 µM in assay [4]; 28.3 µM in assay [5]; 2.56 µM in assay [6].
As to `CCOP(=O)(OCC)C(CNc1ccccc1NC(=S)NC(=O)[C@]1(C)CCC[C@]2(C)c3ccc(C(C)C)cc3CC[C@@H]12)P(=O)(OCC)OCC`, the IC50 in assay [1] came to 16.5 µM; in [2] it was 12.5 µM; in assay [3] it was 15 µM; in assay [4], 11.4 µM; in [5], 13.9 µM; in assay [6] it was 15.3 µM.
